Assay results: ChEMBL document CHEMBL1131764, “Solid phase synthesis and biological activities of [Arg8]-vasopressin methylenedithioether” (1999)

Assays:
Rattus norvegicus [1] = organism: Rattus norvegicus; assay: Vasopressor test using phonoxybenzamine treated male rats was determined; format: functional
Rattus norvegicus [2] = organism: Rattus norvegicus; assay: In vitro biological activity in the absence of magnesium ions was determined in rats by Uterotonic test; format: functional
Rattus norvegicus [3] = assay: Antidiuretic test on conscious rats was determined; format: functional, Urine

SMILES: NC(=O)CC[C@@H]1NC(=O)[C@H](Cc2ccccc2)NC(=O)[C@H](Cc2ccc(O)cc2)NC(=O)[C@@H](N)CSCSC[C@@H](C(=O)N2CCC[C@H]2C(=O)N[C@@H](CCCN=C(N)N)C(=O)NCC(N)=O)NC(=O)[C@H](CC(N)=O)NC1=O
- Activity (Rattus norvegicus [1]): 55.3 IU mg-1
- Activity (Rattus norvegicus [2]): 1.4 IU mg-1
- Activity (Rattus norvegicus [3]): 46.5 IU mg-1

SMILES: N=C(N)NCCC[C@H](NC(=O)[C@@H]1CCCN1C(=O)[C@@H]1CSSC[C@H](N)C(=O)N[C@@H](Cc2ccc(O)cc2)C(=O)N[C@@H](Cc2ccccc2)C(=O)N[C@@H](CCC(N)=O)C(=O)N[C@@H](CC(N)=O)C(=O)N1)C(=O)NCC(N)=O [VASOPRESSIN]
- Activity (Rattus norvegicus [1]): 412 IU mg-1
- Activity (Rattus norvegicus [2]): 17 IU mg-1
- Activity (Rattus norvegicus [3]): 465 IU mg-1
